This note sets out measurements from article PMC6199744, “Development of Chemical Proteomics for the Folateome and Analysis of the Kinetoplastid Folateome” (ACS Infectious Diseases, 2018).

Like-named read-outs stand apart in the source and are kept apart here.

Holding throughout (assay type): binding
Assay [1] deals with T1, HeLa cell extract proteins (Homo sapiens, UniProt P49773).
T1 construct: endogenous in cells; host or cells: HeLa cell extract

Assay [2] addresses T2, HeLa cell extract proteins (Homo sapiens, UniProt Q9HA64).
T2 construct: endogenous in cells; host or cells: HeLa cell extract
T2 sequence (Q9HA64 1-309): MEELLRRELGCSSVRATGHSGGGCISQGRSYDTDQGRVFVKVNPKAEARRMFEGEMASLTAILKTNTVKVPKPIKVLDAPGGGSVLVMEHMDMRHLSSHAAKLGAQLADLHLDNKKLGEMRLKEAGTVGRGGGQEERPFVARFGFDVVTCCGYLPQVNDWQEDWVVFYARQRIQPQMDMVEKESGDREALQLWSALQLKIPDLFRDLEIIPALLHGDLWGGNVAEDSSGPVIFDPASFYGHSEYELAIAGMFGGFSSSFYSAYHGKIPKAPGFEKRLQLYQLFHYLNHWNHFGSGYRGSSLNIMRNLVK

Assay [3] addresses T3, HeLa cell extract proteins (Homo sapiens, UniProt Q9P2K8).
T3 construct: endogenous in cells; host or cells: HeLa cell extract

Assay [4] addresses T4, HeLa cell extract proteins (Homo sapiens, UniProt P46940).
T4 construct: endogenous in cells; host or cells: HeLa cell extract

Assay [5] deals with T5, HeLa cell extract proteins (Homo sapiens, UniProt O95372).
T5 construct: endogenous in cells; host or cells: HeLa cell extract

For assay [6], the target named is T6, HeLa cell extract proteins (Homo sapiens, UniProt P24863).
T6 construct: endogenous in cells; host or cells: HeLa cell extract
T6 sequence (P24863 1-283): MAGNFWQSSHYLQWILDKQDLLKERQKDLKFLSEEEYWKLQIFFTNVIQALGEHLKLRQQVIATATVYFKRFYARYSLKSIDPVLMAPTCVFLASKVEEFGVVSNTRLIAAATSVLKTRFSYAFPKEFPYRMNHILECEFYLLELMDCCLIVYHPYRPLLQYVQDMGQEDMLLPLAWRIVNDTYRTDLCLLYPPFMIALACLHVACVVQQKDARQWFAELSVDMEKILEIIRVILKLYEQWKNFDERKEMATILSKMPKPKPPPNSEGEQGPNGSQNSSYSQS

In assay [7] the target is T7, HeLa cell extract proteins (Homo sapiens, UniProt P40925).
T7 construct: endogenous in cells; host or cells: HeLa cell extract
T7 sequence (P40925 1-334): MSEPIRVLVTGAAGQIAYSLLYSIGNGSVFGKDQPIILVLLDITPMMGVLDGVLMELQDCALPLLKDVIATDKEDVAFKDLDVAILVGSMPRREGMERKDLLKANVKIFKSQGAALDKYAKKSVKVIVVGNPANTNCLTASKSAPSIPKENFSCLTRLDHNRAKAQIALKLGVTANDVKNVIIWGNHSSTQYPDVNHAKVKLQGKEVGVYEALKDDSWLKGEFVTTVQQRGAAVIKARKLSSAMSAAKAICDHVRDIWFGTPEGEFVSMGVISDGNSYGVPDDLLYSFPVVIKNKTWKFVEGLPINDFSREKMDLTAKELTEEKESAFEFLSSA

For assay [8], the target named is T8, HeLa cell extract proteins (Homo sapiens, UniProt O94822).
T8 construct: endogenous in cells; host or cells: HeLa cell extract

Assay [9] concerns the target T9, HeLa cell extract proteins (Homo sapiens, UniProt Q9BQB6).
T9 construct: endogenous in cells; host or cells: HeLa cell extract

For assay [10], the target named is T10, HeLa cell extract proteins (Homo sapiens, UniProt P04792).
T10 construct: endogenous in cells; host or cells: HeLa cell extract

Assay [11] concerns the target T11, HeLa cell extract proteins (Homo sapiens, UniProt Q8NBE8).
T11 construct: endogenous in cells; host or cells: HeLa cell extract
T11 sequence (Q8NBE8 1-558): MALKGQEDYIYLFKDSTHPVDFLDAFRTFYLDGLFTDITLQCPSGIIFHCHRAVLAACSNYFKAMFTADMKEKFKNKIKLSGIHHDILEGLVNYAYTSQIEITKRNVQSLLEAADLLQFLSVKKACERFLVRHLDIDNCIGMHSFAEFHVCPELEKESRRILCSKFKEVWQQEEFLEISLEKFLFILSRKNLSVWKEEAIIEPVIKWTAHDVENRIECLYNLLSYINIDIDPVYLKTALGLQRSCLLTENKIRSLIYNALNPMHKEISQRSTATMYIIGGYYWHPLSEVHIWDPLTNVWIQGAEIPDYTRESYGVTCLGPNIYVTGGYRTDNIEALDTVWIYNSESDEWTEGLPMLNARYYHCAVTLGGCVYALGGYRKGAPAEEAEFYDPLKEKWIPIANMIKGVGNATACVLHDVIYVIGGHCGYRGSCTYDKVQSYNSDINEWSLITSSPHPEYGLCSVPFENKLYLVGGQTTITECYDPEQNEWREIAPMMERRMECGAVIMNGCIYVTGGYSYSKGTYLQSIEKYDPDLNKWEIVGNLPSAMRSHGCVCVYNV

The target of assay [12] is T12, HeLa cell extract proteins (Homo sapiens, UniProt Q07021).
T12 construct: endogenous in cells; host or cells: HeLa cell extract
T12 sequence (Q07021 74-282): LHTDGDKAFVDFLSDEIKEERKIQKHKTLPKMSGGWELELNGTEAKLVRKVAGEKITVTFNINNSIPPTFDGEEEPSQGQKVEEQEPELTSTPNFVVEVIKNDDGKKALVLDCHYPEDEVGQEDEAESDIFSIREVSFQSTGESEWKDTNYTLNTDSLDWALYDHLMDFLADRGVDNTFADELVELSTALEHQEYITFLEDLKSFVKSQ

For assay [13], the target named is T13, HeLa cell extract proteins (Homo sapiens, UniProt Q9H479).
T13 construct: endogenous in cells; host or cells: HeLa cell extract
T13 sequence (Q9H479 1-309): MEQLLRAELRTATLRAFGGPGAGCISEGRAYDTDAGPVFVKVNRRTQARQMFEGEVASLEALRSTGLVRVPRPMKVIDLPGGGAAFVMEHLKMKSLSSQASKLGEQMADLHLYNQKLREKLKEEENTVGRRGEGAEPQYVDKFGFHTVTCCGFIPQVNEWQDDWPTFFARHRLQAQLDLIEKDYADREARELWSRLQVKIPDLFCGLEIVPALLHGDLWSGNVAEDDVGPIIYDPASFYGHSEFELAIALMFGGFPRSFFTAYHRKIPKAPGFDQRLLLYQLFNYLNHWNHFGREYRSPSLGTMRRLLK

Where [14] appears, read: HeLa, protein MDH1 (MALATE DEHYDROGENASE, CYTOPLASMIC.).
Setting [15] is: HeLa, protein FN3KRP (KETOSAMINE-3-KINASE).
The mark [16] stands for this setting: HeLa, protein FN3K (FRUCTOSAMINE-3-KINASE).

T3 sequence (Q9P2K8 whole entry): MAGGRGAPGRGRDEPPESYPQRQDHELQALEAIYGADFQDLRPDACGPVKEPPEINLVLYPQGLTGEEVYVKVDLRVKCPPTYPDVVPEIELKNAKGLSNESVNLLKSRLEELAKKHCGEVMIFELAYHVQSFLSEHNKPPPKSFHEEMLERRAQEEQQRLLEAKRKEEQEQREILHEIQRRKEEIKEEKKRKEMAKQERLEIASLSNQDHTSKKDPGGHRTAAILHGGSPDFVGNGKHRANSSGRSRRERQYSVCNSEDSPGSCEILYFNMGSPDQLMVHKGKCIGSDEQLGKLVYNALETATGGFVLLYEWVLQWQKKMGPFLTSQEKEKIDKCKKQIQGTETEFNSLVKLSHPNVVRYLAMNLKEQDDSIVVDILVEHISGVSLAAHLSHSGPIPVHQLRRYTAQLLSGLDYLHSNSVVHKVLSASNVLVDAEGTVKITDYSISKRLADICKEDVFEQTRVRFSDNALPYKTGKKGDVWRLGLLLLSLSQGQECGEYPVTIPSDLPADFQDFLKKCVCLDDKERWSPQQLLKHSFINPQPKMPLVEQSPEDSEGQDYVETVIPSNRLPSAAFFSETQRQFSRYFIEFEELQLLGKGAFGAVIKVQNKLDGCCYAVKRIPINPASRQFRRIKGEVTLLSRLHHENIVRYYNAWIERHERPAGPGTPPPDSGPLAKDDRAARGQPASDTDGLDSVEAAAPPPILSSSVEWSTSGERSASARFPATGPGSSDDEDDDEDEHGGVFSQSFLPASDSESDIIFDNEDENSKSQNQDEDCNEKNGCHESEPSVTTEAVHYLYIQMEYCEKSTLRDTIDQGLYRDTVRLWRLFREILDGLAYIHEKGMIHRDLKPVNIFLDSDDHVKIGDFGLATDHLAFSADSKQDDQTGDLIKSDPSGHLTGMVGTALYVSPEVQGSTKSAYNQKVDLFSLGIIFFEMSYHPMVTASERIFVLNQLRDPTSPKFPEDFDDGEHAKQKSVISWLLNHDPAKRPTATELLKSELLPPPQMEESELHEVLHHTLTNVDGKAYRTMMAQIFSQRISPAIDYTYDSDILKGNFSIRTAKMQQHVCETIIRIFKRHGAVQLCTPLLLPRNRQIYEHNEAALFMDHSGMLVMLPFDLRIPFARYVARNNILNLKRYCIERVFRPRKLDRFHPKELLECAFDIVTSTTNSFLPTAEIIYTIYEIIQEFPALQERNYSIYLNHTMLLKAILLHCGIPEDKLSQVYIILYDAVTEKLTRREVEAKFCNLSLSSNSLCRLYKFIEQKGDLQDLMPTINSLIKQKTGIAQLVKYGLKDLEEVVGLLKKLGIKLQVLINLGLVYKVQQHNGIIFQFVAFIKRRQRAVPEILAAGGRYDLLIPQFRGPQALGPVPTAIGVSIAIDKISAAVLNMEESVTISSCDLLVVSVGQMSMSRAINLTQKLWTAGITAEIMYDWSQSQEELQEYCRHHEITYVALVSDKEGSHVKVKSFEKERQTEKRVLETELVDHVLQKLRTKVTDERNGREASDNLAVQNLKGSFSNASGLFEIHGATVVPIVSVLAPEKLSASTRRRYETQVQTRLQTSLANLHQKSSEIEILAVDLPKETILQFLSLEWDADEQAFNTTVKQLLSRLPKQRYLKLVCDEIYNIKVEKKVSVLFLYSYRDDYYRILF
T5 sequence (O95372 whole entry): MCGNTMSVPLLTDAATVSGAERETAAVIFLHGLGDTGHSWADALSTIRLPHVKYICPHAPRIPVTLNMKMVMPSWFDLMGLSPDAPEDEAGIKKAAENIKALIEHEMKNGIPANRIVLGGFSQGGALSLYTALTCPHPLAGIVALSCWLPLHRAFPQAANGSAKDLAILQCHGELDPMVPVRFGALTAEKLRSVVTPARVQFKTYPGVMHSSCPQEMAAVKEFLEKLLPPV
T8 sequence (O94822 whole entry): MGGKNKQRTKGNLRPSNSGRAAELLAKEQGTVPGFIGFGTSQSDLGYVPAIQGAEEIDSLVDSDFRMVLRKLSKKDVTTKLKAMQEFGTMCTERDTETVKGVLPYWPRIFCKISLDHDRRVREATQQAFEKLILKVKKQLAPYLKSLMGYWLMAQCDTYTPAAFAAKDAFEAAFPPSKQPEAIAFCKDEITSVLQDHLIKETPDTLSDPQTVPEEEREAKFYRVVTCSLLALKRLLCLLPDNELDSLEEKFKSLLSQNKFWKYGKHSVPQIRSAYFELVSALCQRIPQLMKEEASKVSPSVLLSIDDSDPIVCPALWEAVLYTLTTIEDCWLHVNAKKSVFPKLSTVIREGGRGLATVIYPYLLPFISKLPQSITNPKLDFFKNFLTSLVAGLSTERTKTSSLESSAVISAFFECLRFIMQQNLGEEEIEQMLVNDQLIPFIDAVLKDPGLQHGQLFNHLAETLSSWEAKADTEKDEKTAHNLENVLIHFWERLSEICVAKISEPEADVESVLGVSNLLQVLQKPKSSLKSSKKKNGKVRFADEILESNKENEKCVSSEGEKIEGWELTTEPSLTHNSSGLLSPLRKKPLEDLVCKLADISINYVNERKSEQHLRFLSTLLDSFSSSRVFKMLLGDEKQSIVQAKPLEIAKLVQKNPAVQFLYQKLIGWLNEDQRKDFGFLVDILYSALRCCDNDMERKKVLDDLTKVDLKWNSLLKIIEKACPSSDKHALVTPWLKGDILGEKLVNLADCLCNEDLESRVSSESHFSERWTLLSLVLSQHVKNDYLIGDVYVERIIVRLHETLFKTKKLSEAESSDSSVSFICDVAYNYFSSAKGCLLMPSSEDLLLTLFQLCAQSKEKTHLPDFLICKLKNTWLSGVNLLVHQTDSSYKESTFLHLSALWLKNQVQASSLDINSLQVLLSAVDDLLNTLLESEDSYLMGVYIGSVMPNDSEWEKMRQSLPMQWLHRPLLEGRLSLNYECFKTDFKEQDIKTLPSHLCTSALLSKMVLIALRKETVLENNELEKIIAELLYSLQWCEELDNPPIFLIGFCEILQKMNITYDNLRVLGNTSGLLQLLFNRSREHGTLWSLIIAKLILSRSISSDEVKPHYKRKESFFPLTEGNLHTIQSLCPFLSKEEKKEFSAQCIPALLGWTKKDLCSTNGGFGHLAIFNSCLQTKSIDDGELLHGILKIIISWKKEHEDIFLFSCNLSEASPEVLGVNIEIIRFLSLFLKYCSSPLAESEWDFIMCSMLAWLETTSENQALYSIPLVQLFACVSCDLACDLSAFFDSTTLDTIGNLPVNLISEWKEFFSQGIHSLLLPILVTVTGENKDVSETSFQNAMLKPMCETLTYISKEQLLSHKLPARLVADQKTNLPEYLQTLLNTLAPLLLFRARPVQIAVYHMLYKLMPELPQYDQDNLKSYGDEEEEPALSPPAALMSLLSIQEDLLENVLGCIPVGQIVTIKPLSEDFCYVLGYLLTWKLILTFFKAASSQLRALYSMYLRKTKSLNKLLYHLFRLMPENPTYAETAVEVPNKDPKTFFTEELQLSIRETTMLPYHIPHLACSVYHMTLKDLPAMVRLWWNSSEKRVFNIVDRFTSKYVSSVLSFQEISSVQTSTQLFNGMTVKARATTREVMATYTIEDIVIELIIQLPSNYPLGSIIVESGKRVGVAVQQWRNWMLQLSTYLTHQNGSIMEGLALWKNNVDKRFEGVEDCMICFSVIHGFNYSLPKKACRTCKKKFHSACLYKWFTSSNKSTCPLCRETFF
T9 sequence (Q9BQB6 whole entry): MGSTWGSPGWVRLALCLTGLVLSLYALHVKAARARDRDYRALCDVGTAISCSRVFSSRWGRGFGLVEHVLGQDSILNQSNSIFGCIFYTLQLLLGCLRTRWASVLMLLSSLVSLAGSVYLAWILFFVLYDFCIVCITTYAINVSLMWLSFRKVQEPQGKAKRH
T10 sequence (P04792 whole entry): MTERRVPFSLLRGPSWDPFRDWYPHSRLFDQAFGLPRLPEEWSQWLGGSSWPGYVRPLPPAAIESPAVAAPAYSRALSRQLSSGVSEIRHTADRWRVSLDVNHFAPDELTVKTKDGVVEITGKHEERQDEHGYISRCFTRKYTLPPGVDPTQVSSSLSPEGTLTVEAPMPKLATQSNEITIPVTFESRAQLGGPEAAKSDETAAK
T1 sequence (P49773 whole entry): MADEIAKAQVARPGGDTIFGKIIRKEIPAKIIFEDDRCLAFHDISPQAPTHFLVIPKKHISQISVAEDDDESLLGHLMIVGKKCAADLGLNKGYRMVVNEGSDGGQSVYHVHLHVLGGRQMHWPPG

For `Nc1nc2cccc(-c3ccccc3)c2n1Cc1ccc(Cl)c(Cl)c1` [compound 3], the “fold changes relative to vehicle control” value in assay [1] (HeLa, protein HINT1) was found to be 1.17; in assay [2] (protein FN3KRP, HeLa) it was 1.04; in assay [3] (captured protein EIF2AK4, HeLa), 1.02; in assay [4] (protein IQGAP1, HeLa) it was 0.93; in [5] (HeLa, protein LYPLA2), 0.97; in assay [6] (captured protein CCNC, HeLa), 0.93. The “fold changes relative to vehicle control” value in [7] (setting [14]) was 0.87 fold; in assay [8] (captured protein RNF160, HeLa) it was 1.13; in [9] (HeLa, protein VKORC1), 1.03; in [10] (protein HSPB1, HeLa), 0.88; in assay [11] (protein KLHL23, HeLa), 0.92; in [12] (protein C1QBP, HeLa), 1. In addition, the “fold changes relative to vehicle control” value in assay [13] (protein FN3K, HeLa) stood at 1.09.

Consider `NCCOCCOCC(=O)Nc1nc2ncc(CNc3ccc(C(=O)NC(CCC(=O)O)C(=O)O)cc3)nc2c(=O)[nH]1` (stereo not drawn) [compound 6], for which the “fold changes relative to vehicle control” value in assay [1] (HeLa, captured protein HINT1) was 1.33; in assay [2] (setting [15]), 0.85; in assay [3], 1.02; in assay [4] (HeLa, protein IQGAP1), 1.25; in assay [5] (protein LYPLA2, HeLa), 1.09; in assay [6] (HeLa, protein CCNC) it was 0.94. Besides, the “fold changes relative to vehicle control” value in [7] (HeLa, protein MDH1) was 1.42; in assay [8] (HeLa, captured protein RNF160), 1.17; in [9] (HeLa, protein VKORC1), 1.04; in assay [10] (HeLa, protein HSPB1), 1.07; in assay [11] (HeLa, protein KLHL23), 0.8; in assay [12] (HeLa, protein C1QBP) it was 0.92. Further, the “fold changes relative to vehicle control” value in assay [13] (setting [16]) was determined as 0.94.

Turning to `Nc1nc2[nH]cc(CCc3ccc(C(=O)N[C@@H](CCC(=O)O)C(=O)O)cc3)c2c(=O)[nH]1` [PTX, pemetrexed], the “fold changes relative to vehicle control” value turned out to be 0.77 in assay [1]; 1.01 in assay [2]; 0.65 in assay [3]; 1.08 in [4]; 0.99 in [5]; 0.83 in [6]. In addition, the “fold changes relative to vehicle control” value in assay [7] is 1.2; in assay [8], 1.09; in assay [9], 1.01; in assay [10], 1; in assay [11], 0.8; in [12], 0.92. In addition, in assay [13], the “fold changes relative to vehicle control” value is listed as 0.88.

For `Nc1nc2c(c(=O)[nH]1)N(C=O)C(CNc1ccc(C(=O)N[C@@H](CCC(=O)O)C(=O)O)cc1)CN2` (stereo partly drawn) [LEU, leucovorin], the “fold changes relative to vehicle control” value in assay [1] (HeLa, captured protein HINT1) came to 1.12; in assay [2] (setting [15]), 1.08; in assay [3] (HeLa, protein EIF2AK4 (ISOFORM 1 OF EUKARYOTIC TRANSLATION INITIATION FACTOR 2-ALPHA KINASE 4)) it was 0.83; in assay [4] (HeLa, protein IQGAP1) it was 1.02; in assay [5] (protein LYPLA2, HeLa), 0.89; in assay [6] (HeLa, protein CCNC), 1.13. The “fold changes relative to vehicle control” value in assay [7] (HeLa, protein MDH1) came out at 1.01; in assay [8] (HeLa, captured protein RNF160), 1.1; in [9] (HeLa, protein VKORC1) it was 1.02; in assay [10] (HeLa, protein HSPB1), 1.01; in assay [11] (HeLa, protein KLHL23), 0.91; in [12] (HeLa, protein C1QBP) it was 0.85. Moreover, the “fold changes relative to vehicle control” value in assay [13] (setting [16]) is listed as 0.93.

As to `CCCCCCOc1ccc(Cc2cnc(N)nc2N)cc1` [compound 1], the “fold changes relative to vehicle control” value in assay [1] (HeLa, protein HINT1) came out at 1.03; in [2] (protein FN3KRP, HeLa), 1; in assay [3] (captured protein EIF2AK4, HeLa), 0.97; in assay [4] (protein IQGAP1, HeLa), 0.99; in assay [5] (HeLa, protein LYPLA2), 0.82; in assay [6] (captured protein CCNC, HeLa), 0.89. The “fold changes relative to vehicle control” value in assay [7] (setting [14]) came out at 1.3 fold; in [8] (captured protein RNF160, HeLa) it was 1.01; in [9] (HeLa, protein VKORC1) it was 0.98; in assay [10] (protein HSPB1, HeLa), 1.09; in assay [11] (protein KLHL23, HeLa), 0.87; in assay [12] (protein C1QBP, HeLa) it was 1.12. Besides, in assay [13] (protein FN3K, HeLa), the “fold changes relative to vehicle control” value is 0.92.

Regarding `NCCCNc1ccc(C(=O)NC(CCC(=O)O)C(=O)O)cc1` (stereo not drawn) [compound 7], the “fold changes relative to vehicle control” value is given as 1.33 in [1] (HeLa, captured protein HINT1); 1.07 in [2] (setting [15]); 1.02 in assay [3]; 1.18 in [4] (HeLa, protein IQGAP1); 1.01 in [5] (protein LYPLA2, HeLa); 0.95 in assay [6] (HeLa, protein CCNC). In addition, the “fold changes relative to vehicle control” value in assay [7] (HeLa, protein MDH1) turned out to be 0.93; in assay [8] (HeLa, captured protein RNF160), 1.17; in assay [9] (HeLa, protein VKORC1) it was 1.11; in assay [10] (HeLa, protein HSPB1) it was 0.94; in assay [11] (HeLa, protein KLHL23) it was 0.83; in assay [12] (HeLa, protein C1QBP), 0.78. In addition, the “fold changes relative to vehicle control” value in [13] (setting [16]) worked out at 0.99.
